Source: patent publication US6121290A, “Use of GABA uptake inhibitors as anti-tussive agents” (SmithKline Beecham Corporation, priority 1998, dated 2000)

Columns and labels:
[1] = system: citric acid-induced cough; test: Citric acid-induced cough in guinea pigs (anti-tussive activity in vivo); set-up: species or system Male Hartley Guinea pigs; details: 0.4M citric acid, 30 min pre-treatment; for Treated (incidences of cough): coughs in 13 minutes; for % Inhibition: cough inhibition vs control
Procedure: Citric acid was nebulized for only one minute to the animals. Coughs were determined by examination of the flow signal and observation of the test animals.
To perform the experiments Male Hartley Guinea pigs weighing between 550, and 750 g were placed into a clear plastic exposure chamber with an internal volume of 6 l. A bias air flow was applied to the chamber at a flow rate of 2 l/min for the duration of the experiment.
An incidence of cough was denoted by a larger than normal inspiration (at least twice normal tidal deflection) followed immediately by a rapid, forceful expiration (more than three times the normal excursion from baseline). A cough was easily distinguished from animal movement, augmented breaths and gasps by close inspection of the data. Because a sneeze and cough have similar flow patterns, they were differentiated by visual observation of the animals.
Test compounds were administered via the IP route, and the pre-treatment time was 30 min. The aerosol was administered to the animals by connecting a small volume ultrasonic nebulizer (AeroSonic model 5000D Devilbis Sumerset, Pa.) to the bias-flow immediately before the exposure chamber inlet. The animals were challenged with 0.4M citric acid aerosol solution. A volume of 2 ml of citric acid solution was placed in the ultrasonic nebulizer. In one minute approximately 0.5 ml of the solution was nebulized to each animal. This has been previously shown to induce the cough reflex. The incidences of cough in 13 minutes (aerosolization time+observation time,) as well as time to onset of the first cough were recorded.

[2] = system: GABA uptake; details: in words, from cited literature; cited from earlier work
[3] = system: citric acid-induced cough; test: Citric acid-induced cough in guinea pigs (anti-tussive activity in vivo); set-up: species or system Male Hartley Guinea pigs; details: 0.4M citric acid; for Treated (incidences of cough): coughs in 13 minutes; for % Inhibition: cough inhibition vs control

O=C(O)C1CCCNC1 (centres unmarked) [Compound 2, 3-piperidinecarboxylic acid]
Treated (incidences of cough) ([1]; 20 mg ip): 9.75
% Inhibition ([1]; 20 mg ip): 28.36%

O=C(O)C1=CCCNC1 [Compound 4, 1,2,5,6-tetrahydro-3-pyridinecarboxylic acid]
GABA uptake inhibitory activity [2]: having GABA uptake inhibitory activity
Treated (incidences of cough) ([1]; 6 mg ip): 7.6
% Inhibition ([1]; 6 mg ip): 48.30%
Treated (incidences of cough) ([1]; 20 mg ip): 4.75
% Inhibition ([1]; 20 mg ip): 67.69%

O=C(O)CC1CCN(CCC=C(c2ccccc2)c2ccccc2)C1 (centres unmarked) [Compound 1, N-(4,4-diphenyl-3-butenyl)-3-pyrrolidineacetic acid]
Treated (incidences of cough) ([1]; 20 mg ip): 7.2
% Inhibition ([1]; 20 mg ip): 53.13%

Cc1ccsc1C(=CCCN1CCC[C@@H](C(=O)O)C1)c1sccc1C [(R)-1-[4,4-bis(3-methyl-2-thienyl)-3-butenyl]-3-piperidinecarboxylic acid, reference compound]
GABA uptake inhibitory activity [2]: having GABA uptake inhibitory activity

O=C(O)[C@@H]1CCCN(CCC=C(c2ccccc2)c2ccccc2)C1 [Compound 3, (R)-N-(4,4-diphenyl-3-butenyl)-3-piperidinecarboxylic acid]
GABA uptake inhibitory activity [2]: having GABA uptake inhibitory activity
Treated (incidences of cough) ([3]; 10 mg po): 8.2
% Inhibition ([3]; 10 mg po): 42.25%
Treated (incidences of cough) ([3]; 30 mg po): 8
% Inhibition ([3]; 30 mg po): 43.66%
Treated (incidences of cough) ([1]; 1 mg ip): 6.6
% Inhibition ([1]; 1 mg ip): 49.23%
Treated (incidences of cough) ([1]; 10 mg ip): 2.8
% Inhibition ([1]; 10 mg ip): 78.46%

O=C(O)[C@@H]1CNCC[C@@H]1O (relative stereo) [Compound 6, cis4-hydroxy-3-piperidinecarboxylic acid]
Treated (incidences of cough) ([1]; 10 mg ip): 16.3
% Inhibition ([1]; 10 mg ip): 8.21%
Treated (incidences of cough) ([1]; 20 mg ip): 8.6
% Inhibition ([1]; 20 mg ip): 35.82%

O=C(O)C1=CCCN(CCC=C(c2ccccc2)c2ccccc2)C1 [Compound 5, N-(4,4-diphenyl-3-butenyl)-1,2,5,6-tetrahydro-3-pyridinecarboxylic acid]
Treated (incidences of cough) ([1]; 1 mg ip): 15.4
% Inhibition ([1]; 1 mg ip): 5.79%
Treated (incidences of cough) ([1]; 3 mg ip): 12.4
% Inhibition ([1]; 3 mg ip): 20.53%
Treated (incidences of cough) ([1]; 30 mg ip): 1
% Inhibition ([1]; 30 mg ip): 92.48%
